Measurements reported in PubChem BioAssay AID248 (DTP/NCI, 2004).
“And” between values parts separate entries of the source, which are not always exact repeats. Equal values may be shown once. Toxic doses and inconclusive results are not listed. No stated cut-off is given here; in the data, active means T/C of 150% or more; inactive means T/C below 125%.

Tested on: L1210 leukemia ip in BDF1 mice, survival T/C
Assay: NCI In Vivo Anticancer Drug Screen. Data for tumor model L1210 Leukemia (intraperitoneal) in B6D2F1 (BDF1) mice
Details: endpoint: mean survival time, higher = longer survival
Summary of the method: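 Tumor was transplanted into mice, which were then dosed with test compound or vehicle alone. Survival was recorded for each group, and the treated figure was expressed relative to the control figure.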

[1] = dose: 100.0 mg/kg/injection, schedule: Q01DX001 (ip), vehicle: Klucel (hydroxypropylcellulose) (HPC)
[2] = dose: 200.0 mg/kg/injection, schedule: Q01DX001 (ip), vehicle: Klucel (hydroxypropylcellulose) (HPC)
[3] = dose: 400.0 mg/kg/injection, schedule: Q01DX001 (ip), vehicle: Klucel (hydroxypropylcellulose) (HPC)
[4] = dose: 100.0 mg/kg/injection, schedule: Q01DX009 (ip), vehicle: saline
[5] = dose: 200.0 mg/kg/injection, schedule: Q01DX009 (ip), vehicle: saline
[6] = dose: 100.0 mg/kg/injection, schedule: Q01DX001 (ip), vehicle: saline
[7] = dose: 100.0 mg/kg/injection, schedule: Q04DX003 (ip), vehicle: saline
[8] = dose: 200.0 mg/kg/injection, schedule: Q01DX001 (ip), vehicle: saline
[9] = dose: 200.0 mg/kg/injection, schedule: Q04DX003 (ip), vehicle: saline
[10] = dose: 400.0 mg/kg/injection, schedule: Q01DX001 (ip), vehicle: saline
[11] = dose: 400.0 mg/kg/injection, schedule: Q04DX003 (ip), vehicle: saline
[12] = dose: 100.0 mg/kg/injection, schedule: Q04DX003 (ip), vehicle: saline with Tween-80
[13] = dose: 200.0 mg/kg/injection, schedule: Q04DX003 (ip), vehicle: saline with Tween-80

Measured: T/C

Nc1nc2nc(-c3ccccc3)[nH]c2c(=O)[nH]1
inactive: dose: 100.0 mg/kg/injection, schedule: Q04DX003 (ip), vehicle: Klucel (hydroxypropylcellulose) (HPC) 98 % of control | dose: 200.0 mg/kg/injection, schedule: Q04DX003 (ip), vehicle: Klucel (hydroxypropylcellulose) (HPC) 101 % of control | dose: 400.0 mg/kg/injection, schedule: Q04DX003 (ip), vehicle: Klucel (hydroxypropylcellulose) (HPC) 93 % of control

O=C(Nc1ccnc(=O)[nH]1)c1ccccc1
inactive: [1] 91 % of control | [2] 100 % of control | [3] 92 % of control

Nc1nc2c(ncn2C2OC(COP(=O)(O)O)C(O)C2O)c(=O)[nH]1 (configuration not stated)
inactive: dose: 100.0 mg/kg/injection, schedule: Q01DX005 (ip), vehicle: saline 100 % of control | [4] 101 % of control | dose: 200.0 mg/kg/injection, schedule: Q01DX005 (ip), vehicle: saline 112 % of control | [5] 95 % of control

COC(CN)C(Cl)(Cl)Cl (configuration not stated)
inactive: [6] 98 % of control | dose: 100.0 mg/kg/injection, schedule: Q04DX002 (ip), vehicle: saline 96 % of control and 89 % of control | [7] 98 % of control | [8] 107 % of control | dose: 200.0 mg/kg/injection, schedule: Q04DX002 (ip), vehicle: saline 94 % of control and 100 % of control | [9] 107 % of control | [10] 96 % of control | dose: 400.0 mg/kg/injection, schedule: Q04DX002 (ip), vehicle: saline 96 % of control and 100 % of control | [11] 106 % of control

CC(C)(O)C[N+](=O)[O-]
inactive: dose: 50.0 mg/kg/injection, schedule: Q01DX009 (ip), vehicle: saline 88 % of control | [4] 88 % of control | [5] 88 % of control

CCN(/C=C1/SC(=S)NC1=O)CC
inactive: dose: 50.0 mg/kg/injection, schedule: Q01DX009 (ip), vehicle: saline with Tween-80 109 % of control | dose: 100.0 mg/kg/injection, schedule: Q01DX009 (ip), vehicle: saline with Tween-80 98 % of control | dose: 200.0 mg/kg/injection, schedule: Q01DX009 (ip), vehicle: saline with Tween-80 119 % of control

CN(C)N=Nc1ccccc1[N+](=O)[O-]
inactive: dose: 30.0 mg/kg/injection, schedule: Q01DX009 (ip), vehicle: saline with Tween-80 99 % of control | dose: 50.0 mg/kg/injection, schedule: Q01DX001 (ip), vehicle: saline 103 % of control | dose: 53.0 mg/kg/injection, schedule: Q01DX009 (ip), vehicle: saline with Tween-80 118 % of control | dose: 60.0 mg/kg/injection, schedule: Q01DX009 (ip), vehicle: saline with Tween-80 106 % of control | [6] 101 % of control | dose: 119.0 mg/kg/injection, schedule: Q04DX003 (ip), vehicle: saline 107 % of control | dose: 120.0 mg/kg/injection, schedule: Q01DX009 (ip), vehicle: saline with Tween-80 113 % of control | dose: 178.0 mg/kg/injection, schedule: Q04DX003 (ip), vehicle: saline 118 % of control | dose: 267.0 mg/kg/injection, schedule: Q04DX003 (ip), vehicle: saline 92 % of control

[O]=[Hf]=[O]
inactive: [7] 96 % of control | [9] 92 % of control | [11] 97 % of control

c1ccc(NC(Nc2ccccn2)c2ccncc2)nc1
inactive: [12] 104 % of control | [13] 111 % of control

O=C(C(Cl)(Cl)Cl)C(Cl)(Cl)Cl
inactive: dose: 75.0 mg/kg/injection, schedule: Q01DX009 (ip), vehicle: saline with Tween-80 90 % of control | dose: 100.0 mg/kg/injection, schedule: Q04DX002 (ip), vehicle: Klucel (hydroxypropylcellulose) (HPC) 113 % of control | dose: 150.0 mg/kg/injection, schedule: Q01DX009 (ip), vehicle: saline with Tween-80 93 % of control | dose: 200.0 mg/kg/injection, schedule: Q04DX002 (ip), vehicle: Klucel (hydroxypropylcellulose) (HPC) 113 % of control | dose: 300.0 mg/kg/injection, schedule: Q01DX009 (ip), vehicle: saline with Tween-80 86 % of control | dose: 400.0 mg/kg/injection, schedule: Q04DX002 (ip), vehicle: Klucel (hydroxypropylcellulose) (HPC) 87 % of control

NC(=O)C1C(=O)OC2(CCCCC2)C1c1ccccc1 (configuration not stated)
inactive: [6] 89 % of control | [8] 87 % of control | [10] 94 % of control

Clc1ccc([As](c2ccc(Cl)cc2)c2ccc(Cl)cc2)cc1
inactive: [12] 100 % of control | [13] 90 % of control | dose: 400.0 mg/kg/injection, schedule: Q04DX003 (ip), vehicle: saline with Tween-80 101 % of control

CCOC(=O)CCCc1cccc(OC)c1OC
inactive: dose: 100.0 mg/kg/injection, schedule: Q01DX001 (ip), vehicle: saline with Tween-80 91 % of control | dose: 200.0 mg/kg/injection, schedule: Q01DX001 (ip), vehicle: saline with Tween-80 91 % of control | dose: 400.0 mg/kg/injection, schedule: Q01DX001 (ip), vehicle: saline with Tween-80 98 % of control

Cc1cc(NC(=O)CCc2ccc(N3C(N)=NC(N)=NC3(C)C)cc2)ccc1S(=O)(=O)F
inactive: dose: 4.0 mg/kg/injection, schedule: Q03HX024 (ip), vehicle: other 104 % of control | dose: 7.82 mg/kg/injection, schedule: Q12HX018 (ip), vehicle: acetone 106 % of control | dose: 8.0 mg/kg/injection, schedule: Q03HX008 (ip), vehicle: other 117 % of control | dose: 8.0 mg/kg/injection, schedule: Q03HX024 (ip), vehicle: other 114 % of control | dose: 15.62 mg/kg/injection, schedule: Q12HX018 (ip), vehicle: acetone 105 % of control | dose: 16.0 mg/kg/injection, schedule: Q01DX009 (ip), vehicle: other 112 % of control | dose: 16.0 mg/kg/injection, schedule: Q03HX008 (ip), vehicle: other 104 % of control | dose: 16.0 mg/kg/injection, schedule: Q03HX024 (ip), vehicle: other 114 % of control | dose: 18.0 mg/kg/injection, schedule: Q## X018 (ip), vehicle: saline 118 % of control | dose: 25.0 mg/kg/injection, schedule: Q01DX001 (ip), vehicle: Klucel (hydroxypropylcellulose) (HPC) 103 % of control | dose: 31.25 mg/kg/injection, schedule: Q12HX018 (ip), vehicle: acetone 113 % of control | dose: 32.0 mg/kg/injection, schedule: Q01DX009 (ip), vehicle: other 120 % of control | dose: 32.0 mg/kg/injection, schedule: Q03HX008 (ip), vehicle: other 109 % of control | dose: 32.0 mg/kg/injection, schedule: Q03HX024 (ip), vehicle: other 117 % of control | dose: 32.0 mg/kg/injection, schedule: Q04DX003 (ip), vehicle: other 109 % of control | dose: 50.0 mg/kg/injection, schedule: Q01DX001 (ip), vehicle: Klucel (hydroxypropylcellulose) (HPC) 105 % of control | dose: 64.0 mg/kg/injection, schedule: Q01DX001 (ip), vehicle: other 95 % of control | dose: 64.0 mg/kg/injection, schedule: Q01DX009 (ip), vehicle: other 117 % of control | dose: 64.0 mg/kg/injection, schedule: Q03HX008 (ip), vehicle: other 111 % of control | dose: 64.0 mg/kg/injection, schedule: Q04DX003 (ip), vehicle: other 104 % of control | [1] 101 % of control and 92 % of control | [2] 92 % of control | [3] 92 % of control
